# Assay results: US6465228B1, “Levodione reductase” (Roche Vitamins, Inc., priority 1999, dated 2002)
# “Also recorded” adds a separate entry of the source. Like-named read-outs stand apart in the source and are kept apart here.
# Experiments:
# [1] = system: Corynebacterium aquaticum AKU611; assay: Biolog System assimilation of carbon sources; type: cell-based; details: 96-well plate, BUGM+B medium, 24 hours at 28° C.
# Excerpt: Each well contained one of the 96 types of carbon sources in BUGM+B medium (Biolog Universal Growth Media+Blood) (Biolog Inc.).
# levodione reductase [2] = molecular target: T1, levodione reductase (Leifsonia aquatica, UniProt Q9LBG2); type: biochemical, Corynebacterium aquaticum AKU611
# T1 construct: The LR is isolated and purified from the cell-free extract of disrupted cells; made in house; host or cells: Corynebacterium aquaticum AKU611 (FERM BP-6448); This is the natural producer and there was no recombinant expression; The enzyme was purified by ammonium sulfate precipitation and DEAE-Sephacel, alkyl Superose and MONO Q chromatography
# T1 sequence (Q9LBG2 1-267): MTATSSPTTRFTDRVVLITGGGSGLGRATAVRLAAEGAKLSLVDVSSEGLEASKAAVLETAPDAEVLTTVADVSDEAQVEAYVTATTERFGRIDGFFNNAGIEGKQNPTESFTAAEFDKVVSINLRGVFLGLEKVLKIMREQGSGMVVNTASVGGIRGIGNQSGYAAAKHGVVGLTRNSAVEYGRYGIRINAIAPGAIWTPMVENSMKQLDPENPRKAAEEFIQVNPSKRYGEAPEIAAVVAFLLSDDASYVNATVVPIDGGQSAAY
# Protocol: (§1) A basal reaction mixture having a total volume of 500 μl includes 100 μl of 1 M potassium phosphate buffer (pH 7.0), 20 μl of 8 mM NADH in 0.2 mM KOH, 10-40 μl of the enzyme solution (i.e., levodione reductase), and water up to a total of 500 μl . This reaction mixture was incubated for 1 minute at 37 ° C. Then, 2 μl of 0.5 M levodione solution were added to give a final concentration of 2 mM, and the whole mixture was incubated for 1 minute at 37 ° C. The levodione reductase enzyme activity was monitored with the decrease of the absorbance of NADH at 340 nm.
# levodione reductase [3] = molecular target: T1, levodione reductase; assay: Co-factor requirement / identification of reaction product; type: biochemical, Corynebacterium aquaticum AKU611; details: for function as co-factor / electron donor: reduction of levodione to actinol
# Protocol: […] To this reaction mixture, 10 Al of a 0.5 M levodione solution were added five times at 6 minute intervals. The reaction mixture was incubated for a further 5 minutes, and extracted with 1 ml of ethyl acetate. The extract was analyzed by gas chromatography (column: HR-20M (Shinwa, Kyoto, Japan) 0.25 mm Ø×30 m), column temperature: 160° C. (constant), injector temperature: 250° C., carrier gas: He (about 1 ml/min.). As a result, the product was identified as being actinol in comparison with a standard sample of actinol.
# levodione reductase [4] = molecular target: T1, levodione reductase; assay: Substrate specificity, standard LR enzyme assay (NADH decrease at 340 nm); type: biochemical, Corynebacterium aquaticum AKU611; details: for Enzyme Activity: substrate 2 mM final concentration instead of levodione
# Protocol: as §1
# In the present invention, one unit of the levodione reductase enzyme activity is defined as the amount of the levodione reductase which catalyzes the oxidation of 1 μmole of NADH per minute.
# The substrate specificity of the enzyme was determined using the same enzyme assay method as described under 1, except that various solutions containing different substrates (2 mM final concentration in the reaction mixture) were used instead of levodione.
# [5] = Table 4-1, + 3 mM NaCl, metal 100 mM
# [6] = Table 4-1, + 3 mM NaCl, metal 200 mM
# [7] = Table 4-1, + 3 mM NaCl, metal 400 mM
# [8] = Table 4-1, + 3 mM NaCl, metal 800 mM
# [9] = Table 4-1, + 3 mM NaCl, metal 1600 mM
# [10] = Table 4-1, + 3 mM NaCl, metal 1800 mM
# [11] = Table 4-1, + 3 mM NaCl, metal 2000 mM
# [12] = Table 4-1, + 3 mM NaCl, metal 2500 mM
# [13] = Table 4-1, + 3 mM NaCl, metal 3000 mM
compound,measurement,setting,value
"O[C@H]1[C@H](O)[C@@H](O)[C@H](O)[C@@H](O)[C@H]1O [B12, m-inositol]",Assimilation,[1],−
"C[C@H](O)C(=O)O [F3, L-lactic acid]",Assimilation,[1],−
"O=C(O)C[C@H](O)C(=O)O [F5, L-malic acid]",Assimilation,[1],−
Cl.N [NH4Cl],Relative Activity,"levodione reductase [2]; Table 4-2, metal 100 mM",6.4%
same,Relative Activity,"levodione reductase [2]; Table 4-2, metal 200 mM",21.3%
same,Relative Activity,"levodione reductase [2]; Table 4-2, metal 400 mM",39.3%
same,Relative Activity,"levodione reductase [2]; Table 4-2, metal 800 mM",67.1%
same,Relative Activity,"levodione reductase [2]; Table 4-2, metal 1600 mM",100%
same,Relative Activity,"levodione reductase [2]; Table 4-2, metal 1800 mM",75.3%
"OC[C@H]1O[C@H](O[C@H]2[C@H](O)[C@@H](O)[C@@H](O[C@H]3[C@H](O)[C@@H](O)C(O)O[C@@H]3CO)O[C@@H]2CO)[C@H](O)[C@@H](O)[C@@H]1O (mixture of isomers) [C4, Maltotriitrose]",Assimilation,[1],+
"CO[C@H]1O[C@H](CO)[C@@H](O)[C@H](O)[C@H]1O [C12, α-methyl-D-glucoside]",Assimilation,[1],−
"COC1OC(CO)C(O)C(O)C1O [C10, α-methyl-D-galactoside]",Assimilation,[1],−
"O=P(O)(O)OCC(O)CO (racemic) [H12, DL-α-glycerol phosphate]",Assimilation,[1],−
NC(=O)C1=CN([C@@H]2O[C@H](COP(=O)(O)OP(=O)(O)OC[C@H]3O[C@@H](n4cnc5c(N)ncnc54)[C@H](O)[C@@H]3O)[C@@H](O)[C@H]2O)C=CC1 [NADH],function as co-factor / electron donor,levodione reductase [3],could serve as a co-factor
Glycogen [A5],Assimilation,[1],−
[Cl-].[Rb+] [RbCl],increase of enzyme activity,levodione reductase [2]; 3 M RbCl,about 250 fold
same,Relative Activity,levodione reductase [2]; [5],6.4%
same,Relative Activity,levodione reductase [2]; [6],7.5%
same,Relative Activity,levodione reductase [2]; [7],23.3%
same,Relative Activity,levodione reductase [2]; [8],32.6%
same,Relative Activity,levodione reductase [2]; [9],66.4%
same,Relative Activity,levodione reductase [2]; [10],65.1%
same,Relative Activity,levodione reductase [2]; [11],93.2%
same,Relative Activity,levodione reductase [2]; [12],93.3%
same,Relative Activity,levodione reductase [2]; [13],100%
Inulin [A6],Assimilation,[1],−
"COC1OC(CO)C(O)C(O)C1O [C9, α-methyl-D-galactoside]",Assimilation,[1],−
"C[C@@H]1CC(=O)CC(C)(C)C1=O [Levodione, (6R)-2,2,6-trimethylcyclohexane-1,4-dione]",Enzyme Activity,levodione reductase [4],5.66 unit/ml
same,substrate specificity of the enzyme,levodione reductase [4]; substrates 2 mM,the only substrate for which the enzyme exhibited activity
"O=C(CO)[C@@H](O[C@H]1O[C@H](CO)[C@@H](O)[C@H](O)[C@H]1O)[C@H](O)[C@H](O)CO [E3, Turanose]",Assimilation,[1],+
"OC[C@H]1O[C@@H]2O[C@H]3[C@H](O)[C@@H](O)[C@@H](O[C@H]4[C@H](O)[C@@H](O)[C@@H](O[C@H]5[C@H](O)[C@@H](O)[C@@H](O[C@H]6[C@H](O)[C@@H](O)[C@@H](O[C@H]7[C@H](O)[C@@H](O)[C@@H](O[C@H]1[C@H](O)[C@H]2O)O[C@@H]7CO)O[C@@H]6CO)O[C@@H]5CO)O[C@@H]4CO)O[C@@H]3CO [A2, α-cyclodextrin]",Assimilation,[1],−
"OC[C@H]1O[C@H](O[C@H]2O[C@H](CO)[C@@H](O)[C@H](O)[C@H]2O)[C@H](O)[C@@H](O)[C@@H]1O [E2, D-trehalose]",Assimilation,[1],−
[Cl-].[K+] [KCl],Relative Activity,"levodione reductase [2]; Table 4-2, metal 200 mM",11.5%
same,Relative Activity,"levodione reductase [2]; Table 4-2, metal 400 mM",22.2%
same,Relative Activity,"levodione reductase [2]; Table 4-2, metal 800 mM",40.5%
same,Relative Activity,"levodione reductase [2]; Table 4-2, metal 1600 mM",45.3%
same,Relative Activity,"levodione reductase [2]; Table 4-2, metal 1800 mM",33.5%
same,Relative Activity,"levodione reductase [2]; Table 4-2, metal 2000 mM",28.4%
same,Relative Activity,"levodione reductase [2]; Table 4-2, metal 2500 mM",25.9%
same,Relative Activity,"levodione reductase [2]; Table 4-2, metal 3000 mM",25.2%
"OC[C@H]1O[C@H](OC[C@H]2OC(O)[C@H](O)[C@@H](O)[C@@H]2O)[C@H](O)[C@@H](O)[C@H]1O (stereo partly drawn) [C8, D-melibiose]",Assimilation,[1],+
"O=C1CC[C@@H](C(=O)O)N1 [G8, L-pyloglutamic acid]",Assimilation,[1],−
Mannan [A7],Assimilation,[1],−
"NCCCCN [G10, Putrscine]",Assimilation,[1],−
"OC[C@@H](O)C(O)[C@H](O)CO [B2, D-arabitol]",Assimilation,[1],+
"O=P(O)(O)O[C@H]1O[C@H](CO)[C@@H](O)[C@H](O)[C@H]1O [H10, Glucose-1-phosphate]",Assimilation,[1],−
"O=C(O)C[C@@H](O)C(=O)O [F4, D-malic acid]",Assimilation,[1],−
TWEEN ® 40 [A8],Assimilation,[1],+
[Cl-].[Na+] [NaCl],Relative Activity,"levodione reductase [2]; Table 4-1, Tris-HCl pH 7.5, metal 3 mM",0.4%
same,Relative Activity,"levodione reductase [2]; Table 4-2, metal 100 mM",4.2%
same,Relative Activity,"levodione reductase [2]; Table 4-2, metal 200 mM",7.7%
same,Relative Activity,"levodione reductase [2]; Table 4-2, metal 400 mM",19.7%
same,Relative Activity,"levodione reductase [2]; Table 4-2, metal 800 mM",35.9%
same,Relative Activity,"levodione reductase [2]; Table 4-2, metal 1600 mM",75.3%
same,Relative Activity,"levodione reductase [2]; Table 4-2, metal 1800 mM",62.8%
same,Relative Activity,"levodione reductase [2]; Table 4-2, metal 2000 mM",62.8%
same,Relative Activity,"levodione reductase [2]; Table 4-2, metal 2500 mM",53.9%
same,Relative Activity,"levodione reductase [2]; Table 4-2, metal 3000 mM",34.1%
NC(=O)C1=CN([C@@H]2O[C@H](COP(=O)(O)OP(=O)(O)OC[C@H]3O[C@@H](n4cnc5c(N)ncnc54)[C@H](OP(=O)(O)O)[C@@H]3O)[C@@H](O)[C@H]2O)C=CC1 [NADPH],actinol detected by gas chromatography,"levodione reductase [3]; NADH replaced with NADPH, 30° C.",only a trace amount of actinol was detected
same,function as co-factor / electron donor,levodione reductase [3],does not work as an electron donor; also recorded: could not
"OC[C@H]1O[C@H](OC[C@H]2OC(O)(CO)[C@@H](O)[C@@H]2O)[C@H](O)[C@@H](O)[C@@H]1O (stereo partly drawn) [D3, Palatinose]",Assimilation,[1],+
"OC[C@H]1O[C@@](CO)(O[C@H]2O[C@H](CO)[C@@H](O)[C@H](O)[C@H]2O)[C@@H](O[C@H]2O[C@H](CO)[C@@H](O)[C@H](O)[C@H]2O)[C@@H]1O [C7, D-melezitose]",Assimilation,[1],−
[Cl-].[Cs+] [CsCl],increase of enzyme activity,levodione reductase [2]; 1.8 M CsCl,about 250 fold
same,Relative Activity,levodione reductase [2]; [5],5.9%
same,Relative Activity,levodione reductase [2]; [6],14.3%
same,Relative Activity,levodione reductase [2]; [7],28.3%
same,Relative Activity,levodione reductase [2]; [8],48.1%
same,Relative Activity,levodione reductase [2]; [9],71.4%
same,Relative Activity,levodione reductase [2]; [10],100%
same,Relative Activity,levodione reductase [2]; [11],86.8%
same,Relative Activity,levodione reductase [2]; [12],88.4%
same,Relative Activity,levodione reductase [2]; [13],88.0%
"COC1OC(CO)C(O)C(O)C1O [D2, α-methyl-D-mannoside]",Assimilation,[1],−
"CO[C@@H]1O[C@H](CO)[C@@H](O)[C@H](O)[C@H]1O [D1, β-methyl-D-glucoside]",Assimilation,[1],−
Dextrin [A4],Assimilation,[1],−
"OC[C@@]12OC[C@@H](O1)[C@@H](O)[C@@H](O)[C@@H]2O [D9, Sedoheputulosan]",Assimilation,[1],−
O=C1CCCCC1 [Cyclohexanone],Enzyme Activity,levodione reductase [4],Not detected (ND)
"OC[C@H]1O[C@@H]2O[C@H]3[C@H](O)[C@@H](O)[C@@H](O[C@H]4[C@H](O)[C@@H](O)[C@@H](O[C@H]5[C@H](O)[C@@H](O)[C@@H](O[C@H]6[C@H](O)[C@@H](O)[C@@H](O[C@H]7[C@H](O)[C@@H](O)[C@@H](O[C@H]8[C@H](O)[C@@H](O)[C@@H](O[C@H]1[C@H](O)[C@H]2O)O[C@@H]8CO)O[C@@H]7CO)O[C@@H]6CO)O[C@@H]5CO)O[C@@H]4CO)O[C@@H]3CO [A3, β-cyclodextrin]",Assimilation,[1],−
"OC[C@H]1O[C@H](OC[C@H]2O[C@H](O[C@]3(CO)O[C@H](CO)[C@@H](O)[C@@H]3O)[C@H](O)[C@@H](O)[C@@H]2O)[C@H](O)[C@@H](O)[C@H]1O [D5, D-raffinose]",Assimilation,[1],+
"OC[C@H]1O[C@H](OC[C@H]2O[C@H](OC[C@H]3O[C@H](O[C@]4(CO)O[C@H](CO)[C@@H](O)[C@@H]4O)[C@H](O)[C@@H](O)[C@@H]3O)[C@H](O)[C@@H](O)[C@H]2O)[C@H](O)[C@@H](O)[C@H]1O [D11, Stachyose]",Assimilation,[1],+
TWEEN ® 80 [A9],Assimilation,[1],+
